In PubChem BioAssay AID256 (DTP/NCI, 2004):
Where “and” joins values, the source holds several entries; their conditions need not be identical. Equal entries are not always repeated. Inconclusive results and toxic doses are left out.

Test system: CD2F1 mice, L1210 leukemia ip, survival T/C
Assay: NCI In Vivo Anticancer Drug Screen. Data for tumor model L1210 Leukemia (intraperitoneal) in CD2F1 (CDF1) mice
Conditions: higher = longer survival
Summary of the method: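 Each value reflects a quotient of treated over vehicle control outcomes in mice with a transplanted tumor.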

Question: Which results are given for CN(Cc1cnc2nc(N)nc(N)c2n1)c1ccc(C(=O)N[C@@H](CCC(=O)O)C(=O)O)cc1?
Answer: T/C (endpoint: mean survival time, dose: 0.13 mg/kg/injection, schedule: Q01DX009 (ip), vehicle: saline): 119 % of control; T/C (endpoint: mean survival time, dose: 0.19 mg/kg/injection, schedule: Q01DX009 (ip), vehicle: alkali diluted with saline): 115 % of control; T/C (endpoint: mean survival time, dose: 0.25 mg/kg/injection, schedule: Q01DX009 (ip), vehicle: sodium bicarbonate): 115 % of control; T/C (endpoint: mean survival time, dose: 0.25 mg/kg/injection, schedule: Q03HX008 (ip), vehicle: saline): 122 % of control; T/C (endpoint: mean survival time, dose: 0.38 mg/kg/injection, schedule: Q01DX009 (ip), vehicle: alkali diluted with saline): 120 % of control; T/C (endpoint: mean survival time, dose: 0.38 mg/kg/injection, schedule: Q01DX009 (ip), vehicle: other): 154 % of control; T/C (endpoint: mean survival time, dose: 0.44 mg/kg/injection, schedule: Q01DX009 (ip), vehicle: sodium bicarbonate): 156 % of control; T/C (endpoint: mean survival time, dose: 0.47 mg/kg/injection, schedule: Q01DX009 (ip), vehicle: sodium bicarbonate): 160 % of control; T/C (endpoint: mean survival time, dose: 0.5 mg/kg/injection, schedule: Q01DX005 (ip), vehicle: sodium bicarbonate): 115 % of control and 122 % of control; T/C (endpoint: mean survival time, dose: 0.5 mg/kg/injection, schedule: Q01DX007 (ip), vehicle: other): 117 % of control; T/C (endpoint: mean survival time, dose: 0.5 mg/kg/injection, schedule: Q01DX009 (ip), vehicle: saline): 159 % of control; T/C (endpoint: mean survival time, dose: 0.75 mg/kg/injection, schedule: Q01DX009 (ip), vehicle: alkali diluted with saline): 152 % of control and 163 % of control; T/C (endpoint: mean survival time, dose: 0.75 mg/kg/injection, schedule: Q01DX009 (ip), vehicle: other): 154 % of control; T/C (endpoint: mean survival time, dose: 0.78 mg/kg/injection, schedule: Q01DX009 (ip), vehicle: sodium bicarbonate): 166 % of control; T/C (endpoint: mean survival time, dose: 1.0 mg/kg/injection, schedule: Q01DX005 (ip), vehicle: sodium bicarbonate): 113 % of control; T/C (endpoint: mean survival time, dose: 1.0 mg/kg/injection, schedule: Q01DX009 (ip), vehicle: saline): 171 % of control and 183 % of control; T/C (endpoint: mean survival time, dose: 1.3 mg/kg/injection, schedule: Q01DX009 (ip), vehicle: sodium bicarbonate): 181 % of control; T/C (endpoint: mean survival time, dose: 1.5 mg/kg/injection, schedule: Q01DX009 (ip), vehicle: alkali diluted with saline): 177 % of control and 178 % of control; T/C (endpoint: mean survival time, dose: 1.5 mg/kg/injection, schedule: Q01DX009 (ip), vehicle: other): 150 % of control and 164 % of control; T/C (endpoint: mean survival time, dose: 2.0 mg/kg/injection, schedule: Q01DX007 (ip), vehicle: other): 164 % of control; T/C (endpoint: mean survival time, dose: 2.0 mg/kg/injection, schedule: Q01DX009 (ip), vehicle: saline): 161 % of control; T/C (endpoint: mean survival time, dose: 2.0 mg/kg/injection, schedule: Q02DX005 (ip), vehicle: sodium bicarbonate): 170 % of control; T/C (endpoint: mean survival time, dose: 2.0 mg/kg/injection, schedule: Q03DX003 (ip), vehicle: sodium bicarbonate): 158 % of control; T/C (endpoint: mean survival time, dose: 2.0 mg/kg/injection, schedule: Q04DX003 (ip), vehicle: sodium bicarbonate): 160 % of control; T/C (endpoint: mean survival time, dose: 2.16 mg/kg/injection, schedule: Q01DX009 (ip), vehicle: sodium bicarbonate): 179 % of control; T/C (endpoint: mean survival time, dose: 2.3 mg/kg/injection, schedule: Q01DX009 (ip), vehicle: sodium bicarbonate): 164 % of control; T/C (endpoint: mean survival time, dose: 2.3 mg/kg/injection, schedule: Q04DX003 (ip), vehicle: saline): 114 % of control; T/C (endpoint: mean survival time, dose: 2.5 mg/kg/injection, schedule: Q04DX003 (ip), vehicle: sodium bicarbonate): 116 % of control; T/C (endpoint: mean survival time, dose: 4.0 mg/kg/injection, schedule: Q01DX005 (ip), vehicle: sodium bicarbonate): 160 % of control; T/C (endpoint: mean survival time, dose: 4.0 mg/kg/injection, schedule: Q04DX003 (ip), vehicle: saline): 166 % of control; T/C (endpoint: mean survival time, dose: 4.0 mg/kg/injection, schedule: Q04DX003 (ip), vehicle: sodium bicarbonate): 169 % of control; T/C (endpoint: mean survival time, dose: 4.6 mg/kg/injection, schedule: Q04DX003 (ip), vehicle: saline): 164 % of control; T/C (endpoint: mean survival time, dose: 5.0 mg/kg/injection, schedule: Q04DX003 (ip), vehicle: alkali diluted with saline): 156 % of control; T/C (endpoint: mean survival time, dose: 5.0 mg/kg/injection, schedule: Q04DX003 (ip), vehicle: sodium bicarbonate): 159 % of control; T/C (endpoint: mean survival time, dose: 5.4 mg/kg/injection, schedule: Q04DX003 (ip), vehicle: sodium bicarbonate): 165 % of control; T/C (endpoint: mean survival time, dose: 8.0 mg/kg/injection, schedule: Q01DX001 (ip), vehicle: saline): 116 % of control; T/C (endpoint: mean survival time, dose: 8.0 mg/kg/injection, schedule: Q03DX003 (ip), vehicle: sodium bicarbonate): 181 % of control; T/C (endpoint: mean survival time, dose: 9.0 mg/kg/injection, schedule: Q04DX003 (ip), vehicle: sodium bicarbonate): 176 % of control; T/C (endpoint: mean survival time, dose: 9.2 mg/kg/injection, schedule: Q04DX003 (ip), vehicle: saline): 175 % of control; T/C (endpoint: mean survival time, dose: 10.0 mg/kg/injection, schedule: Q01DX005 (ip), vehicle: sodium bicarbonate): 164 % of control; T/C (endpoint: mean survival time, dose: 10.0 mg/kg/injection, schedule: Q04DX003 (ip), vehicle: alkali diluted with saline): 154 % of control and 164 % of control; T/C (endpoint: mean survival time, dose: 10.0 mg/kg/injection, schedule: Q04DX004 (ip), vehicle: sodium bicarbonate): 165 % of control and 183 % of control; T/C (endpoint: mean survival time, dose: 15.0 mg/kg/injection, schedule: Q04DX004 (ip), vehicle: sodium bicarbonate): 168 % of control and 170 % of control; T/C (endpoint: mean survival time, dose: 16.0 mg/kg/injection, schedule: Q04DX003 (ip), vehicle: saline): 150 % of control; T/C (endpoint: mean survival time, dose: 25.0 mg/kg/injection, schedule: Q04DX003 (ip), vehicle: sodium bicarbonate): 174 % of control; T/C (endpoint: mean survival time, dose: 25.0 mg/kg/injection, schedule: Q04DX004 (ip), vehicle: sodium bicarbonate): 175 % of control; T/C (endpoint: mean survival time, dose: 32.0 mg/kg/injection, schedule: Q04DX003 (ip), vehicle: saline): 174 % of control; T/C (endpoint: mean survival time, dose: 35.0 mg/kg/injection, schedule: Q04DX003 (ip), vehicle: sodium bicarbonate): 175 % of control; T/C (endpoint: mean survival time, dose: 36.8 mg/kg/injection, schedule: Q04DX003 (ip), vehicle: saline): 159 % of control; T/C (endpoint: mean survival time, dose: 41.7 mg/kg/injection, schedule: Q04DX003 (ip), vehicle: sodium bicarbonate): 116 % of control; T/C (endpoint: mean survival time, dose: 64.0 mg/kg/injection, schedule: Q04DX003 (ip), vehicle: saline): 120 % of control; T/C (endpoint: mean survival time, dose: 73.5 mg/kg/injection, schedule: Q04DX003 (ip), vehicle: saline): 124 % of control; T/C (endpoint: mean survival time, dose: 128.0 mg/kg/injection, schedule: Q04DX003 (ip), vehicle: saline): 120 % of control; T/C (endpoint: median survival time, dose: 0.5 mg/kg/injection, schedule: Q01DX005 (ip), vehicle: sodium bicarbonate): 113 % of control; T/C (endpoint: median survival time, dose: 0.52 mg/kg/injection, schedule: Q01DX009 (ip), vehicle: sodium bicarbonate): 152 % of control; T/C (endpoint: median survival time, dose: 0.6 mg/kg/injection, schedule: Q06HX024 (ip), vehicle: saline): 116 % of control; T/C (endpoint: median survival time, dose: 0.86 mg/kg/injection, schedule: Q01DX009 (ip), vehicle: sodium bicarbonate): 165 % of control; T/C (endpoint: median survival time, dose: 1.0 mg/kg/injection, schedule: Q01DX005 (ip), vehicle: sodium bicarbonate): 124 % of control; T/C (endpoint: median survival time, dose: 1.25 mg/kg/injection, schedule: Q01DX009 (ip), vehicle: sodium bicarbonate): 173 % of control and 178 % of control; T/C (endpoint: median survival time, dose: 1.56 mg/kg/injection, schedule: Q01DX009 (ip), vehicle: sodium bicarbonate): 171 % of control; T/C (endpoint: median survival time, dose: 2.5 mg/kg/injection, schedule: Q01DX009 (ip), vehicle: sodium bicarbonate): 182 % of control; T/C (endpoint: median survival time, dose: 3.0 mg/kg/injection, schedule: Q01DX005 (ip), vehicle: sodium bicarbonate): 160 % of control and 175 % of control; T/C (endpoint: median survival time, dose: 3.0 mg/kg/injection, schedule: Q01DX009 (ip), vehicle: sodium bicarbonate): 156 % of control; T/C (endpoint: median survival time, dose: 4.0 mg/kg/injection, schedule: Q01DX005 (ip), vehicle: sodium bicarbonate): 168 % of control and 181 % of control; T/C (endpoint: median survival time, dose: 4.5 mg/kg/injection, schedule: Q01DX005 (ip), vehicle: sodium bicarbonate): 169 % of control (2×) and 183 % of control; T/C (endpoint: median survival time, dose: 5.4 mg/kg/injection, schedule: Q04DX003 (ip), vehicle: sodium bicarbonate): 163 % of control and 168 % of control; T/C (endpoint: median survival time, dose: 6.0 mg/kg/injection, schedule: Q01DX005 (ip), vehicle: sodium bicarbonate): 171 % of control and 179 % of control; T/C (endpoint: median survival time, dose: 9.0 mg/kg/injection, schedule: Q04DX003 (ip), vehicle: sodium bicarbonate): 175 % of control; T/C (endpoint: median survival time, dose: 12.5 mg/kg/injection, schedule: Q01DX001 (ip), vehicle: sodium bicarbonate): 116 % of control; T/C (endpoint: median survival time, dose: 15.0 mg/kg/injection, schedule: Q04DX003 (ip), vehicle: sodium bicarbonate): 175 % of control; T/C (endpoint: median survival time, dose: 25.0 mg/kg/injection, schedule: Q04DX003 (ip), vehicle: sodium bicarbonate): 173 % of control; T/C (endpoint: median survival time, dose: 72.0 mg/kg/injection, schedule: Q01DX001 (ip), vehicle: sodium bicarbonate): 113 % of control and 122 % of control; T/C (endpoint: median survival time, dose: 400.0 mg/kg/injection, schedule: Q01DX001 (ip), vehicle: sodium bicarbonate): 177 % of control

Question: How did the T/C (endpoint: mean survival time, dose: 100.0 mg/kg/injection, schedule: Q01DX001 (ip), vehicle: other) turn out when c1ccc2snnc2c1 was run?
Answer: 97 % of control

Question: What about the T/C (endpoint: mean survival time, dose: 200.0 mg/kg/injection, schedule: Q01DX001 (ip), vehicle: other) of the same compound?
Answer: 103 % of control

Question: And the T/C (endpoint: mean survival time, dose: 400.0 mg/kg/injection, schedule: Q01DX001 (ip), vehicle: other)?
Answer: 88 % of control

Question: For CCCCCOC(=S)S.[Pt], which T/C (endpoint: mean survival time, dose: 6.25 mg/kg/injection, schedule: Q04DX003 (ip), vehicle: saline with Tween-80) is on record?
Answer: 101 % of control

Question: And the T/C (endpoint: mean survival time, dose: 12.5 mg/kg/injection, schedule: Q04DX003 (ip), vehicle: saline with Tween-80)?
Answer: 104 % of control

Question: What about the T/C (endpoint: mean survival time, dose: 25.0 mg/kg/injection, schedule: Q04DX003 (ip), vehicle: saline with Tween-80) of the same compound?
Answer: 108 % of control

Question: What about the T/C (endpoint: mean survival time, dose: 50.0 mg/kg/injection, schedule: Q04DX003 (ip), vehicle: saline with Tween-80) of the same compound?
Answer: 101 % of control

Question: What about the T/C (endpoint: mean survival time, dose: 100.0 mg/kg/injection, schedule: Q04DX003 (ip), vehicle: saline with Tween-80) of the same compound?
Answer: 104 % of control
